The values below come from publication PMC6435658, “Investigation into the Molecular Mechanisms underlying the Anti-proliferative and Anti-tumorigenesis activities of Diosmetin against HCT-116 Human Colorectal Cancer” (Scientific Reports, 2019).

For the assay, the system named is HCT-116 cells. Briefly: Cell cycle analysis by flow cytometry. It counts as cell-based, human. To be noted: HCT-116, 24 h, 48 h, 72 h. As to the method:
Flow cytometry analysis was performed to determine any disruption during the cell cycle of HCT-116 cells in the presence of Dis. HCT-116at density of 2 × 10^6 cells were seeded and treated for 24 h, 48 h and 72 h in a 75 cm^2 flask. Negative control was treated with 0.02% DMSO. After fixation of the cells with 70% ethanol, cells were preserved in −20 °C overnight followed by washing and staining with 500 µl of PI/Rnase dye (BD Biosciences, San Jose, CA, USA) and incubated for 30 min. DNA content analysis was performed using BD FACSCanto II flow cytometer instrument and BD FACS Diva software (BD FACSCanto™II, San Jose, CA, USA). A total of 15,000 events per sample were recorded for analysis. ModFit LT version 3.0 software was used for analyzing the data.

`COc1ccc(-c2cc(=O)c3c(O)cc(O)cc3o2)cc1O` [Dis, Diosmetin]: the cell cycle arrest result was “arrested in G2/M phase”.
